Among the data in PubChem BioAssay AID328 (DTP/NCI, 2004) are T/C values, retold here.

“And” between values parts separate entries of the source, which are not always exact repeats. Identical values can stand only once. Inconclusive results and toxic doses are left out.

The subject of this test is BDF1 mice, P388 leukemia ip, median survival T/C. The test is described as follows: NCI In Vivo Anticancer Drug Screen. Data for tumor model P388 Leukemia (intraperitoneal) in B6D2F1 (BDF1) mice. The conditions noted are these: endpoint: median survival time, higher = longer survival. In outline: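 T/C = treated-group survival ÷ vehicle-control survival; tumour transplanted into mice before dosing.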

[1] abbreviates: dose: 100.0 mg/kg/injection, schedule: Q04DX003 (ip), vehicle: Klucel (hydroxypropylcellulose) (HPC).
The mark [2] stands for this setting: dose: 200.0 mg/kg/injection, schedule: Q04DX003 (ip), vehicle: Klucel (hydroxypropylcellulose) (HPC).
The mark [3] stands for this setting: dose: 50.0 mg/kg/injection, schedule: Q01DX009 (ip), vehicle: other.
[4] abbreviates: dose: 100.0 mg/kg/injection, schedule: Q01DX009 (ip), vehicle: other.
The mark [5] stands for this setting: dose: 50.0 mg/kg/injection, schedule: Q01DX009 (ip), vehicle: Klucel (hydroxypropylcellulose) (HPC).
The mark [6] stands for this setting: dose: 100.0 mg/kg/injection, schedule: Q01DX009 (ip), vehicle: Klucel (hydroxypropylcellulose) (HPC).
[7] abbreviates: dose: 200.0 mg/kg/injection, schedule: Q01DX009 (ip), vehicle: Klucel (hydroxypropylcellulose) (HPC).
The mark [8] stands for this setting: dose: 100.0 mg/kg/injection, schedule: Q04DX003 (ip), vehicle: saline with Tween-80.
[9] abbreviates: dose: 200.0 mg/kg/injection, schedule: Q04DX003 (ip), vehicle: saline with Tween-80.
Where [10] appears, read: dose: 400.0 mg/kg/injection, schedule: Q04DX003 (ip), vehicle: saline with Tween-80.
Where [11] appears, read: dose: 100.0 mg/kg/injection, schedule: Q01DX009 (ip), vehicle: saline.
The mark [12] stands for this setting: dose: 100.0 mg/kg/injection, schedule: Q04DX003 (ip), vehicle: saline.
Setting [13] is: dose: 200.0 mg/kg/injection, schedule: Q01DX009 (ip), vehicle: saline.
Setting [14] is: dose: 200.0 mg/kg/injection, schedule: Q04DX003 (ip), vehicle: saline.
[15] abbreviates: dose: 400.0 mg/kg/injection, schedule: Q01DX009 (ip), vehicle: saline.
The mark [16] stands for this setting: dose: 400.0 mg/kg/injection, schedule: Q04DX003 (ip), vehicle: saline.

`COc1ccc2c(C#N)cc3c4ccccc4ncc3c2c1`: the T/C (dose: 12.5 mg/kg/injection, schedule: Q01DX009 (ip), vehicle: distilled water + Tween-80) is 107 % of control; the T/C (dose: 25.0 mg/kg/injection, schedule: Q01DX009 (ip), vehicle: distilled water + Tween-80) was 113 % of control; the T/C (dose: 50.0 mg/kg/injection, schedule: Q01DX009 (ip), vehicle: distilled water + Tween-80) is 88 % of control; the T/C (dose: 100.0 mg/kg/injection, schedule: Q01DX009 (ip), vehicle: distilled water + Tween-80) is 88 % of control.

As for `COc1cc([C@@H]2c3cc4c(cc3[C@H](OC3OC5COC(c6ccccc6)OC5C(O)C3O)[C@H]3COC(=O)[C@H]23)OCO4)cc(OC)c1OC` (some centres not stated), the T/C by setting is: (dose: 3.1 mg/kg/injection, schedule: Q01DX010 (ip), vehicle: carboxymethylcellulose (CMC)) 180 % of control; (dose: 6.2 mg/kg/injection, schedule: Q01DX010 (ip), vehicle: carboxymethylcellulose (CMC)) 210 % of control; (dose: 12.5 mg/kg/injection, schedule: Q01DX010 (ip), vehicle: carboxymethylcellulose (CMC)) 235 % of control; (dose: 25.0 mg/kg/injection, schedule: Q01DX010 (ip), vehicle: carboxymethylcellulose (CMC)) 270 % of control; (dose: 50.0 mg/kg/injection, schedule: Q01DX010 (ip), vehicle: carboxymethylcellulose (CMC)) 300 % of control.

Turning to `O=C(C=C(C(F)(F)F)C(F)(F)F)c1cccc(C(F)(F)F)c1`, the T/C reads like this: (dose: 6.25 mg/kg/injection, schedule: Q01DX009 (ip), vehicle: saline with Tween-80) 110 % of control; (dose: 12.5 mg/kg/injection, schedule: Q01DX009 (ip), vehicle: saline with Tween-80) 120 % of control; (dose: 12.5 mg/kg/injection, schedule: Q04DX003 (ip), vehicle: saline with Tween-80) 122 % of control; (dose: 25.0 mg/kg/injection, schedule: Q01DX009 (ip), vehicle: saline with Tween-80) 110 % of control; (dose: 25.0 mg/kg/injection, schedule: Q04DX003 (ip), vehicle: saline with Tween-80) 122 % of control.

For `O=C1c2c(O)ccc([N+](=O)[O-])c2C(=O)c2c([N+](=O)[O-])ccc(O)c21`, the T/C is, setting by setting: under setting [1], 118 % of control; under setting [2], 122 % of control; (dose: 400.0 mg/kg/injection, schedule: Q04DX003 (ip), vehicle: Klucel (hydroxypropylcellulose) (HPC)) 113 % of control.

In the case of `CC(=O)c1ccc2ccccc2c1OC(=O)c1ccncc1`, the T/C is, setting by setting: (dose: 12.5 mg/kg/injection, schedule: Q01DX009 (ip), vehicle: other) 99 % of control; (dose: 25.0 mg/kg/injection, schedule: Q01DX009 (ip), vehicle: other) 98 % of control; under setting [3], 107 % of control; under setting [4], 118 % of control; (dose: 200.0 mg/kg/injection, schedule: Q01DX009 (ip), vehicle: other) 107 % of control.

As for `O=C(Nc1ccccc1F)Nc1ccccc1Cl`, the T/C is, setting by setting: (dose: 25.0 mg/kg/injection, schedule: Q01DX009 (ip), vehicle: Klucel (hydroxypropylcellulose) (HPC)) 110 % of control and 112 % of control; under setting [5], 86 % of control and 105 % of control; under setting [6], 101 % of control and 110 % of control; under setting [7], 97 % of control and 120 % of control; (dose: 400.0 mg/kg/injection, schedule: Q01DX009 (ip), vehicle: Klucel (hydroxypropylcellulose) (HPC)) 106 % of control and 107 % of control and 117 % of control.

As for `CC1=CC(=O)N(O)CCCC(N)C(=O)OCCC(C)=CC(=O)N(O)CCCC(N)C(=O)OCCC(C)=CC(=O)N(O)CCCC(N)C(=O)OCC1` (configuration not stated), the T/C is, setting by setting: (dose: 3.0 mg/kg/injection, schedule: Q01DX009 (ip), vehicle: Klucel (hydroxypropylcellulose) (HPC)) 89 % of control; (dose: 6.0 mg/kg/injection, schedule: Q01DX009 (ip), vehicle: Klucel (hydroxypropylcellulose) (HPC)) 87 % of control; (dose: 12.0 mg/kg/injection, schedule: Q01DX009 (ip), vehicle: Klucel (hydroxypropylcellulose) (HPC)) 87 % of control; (dose: 24.0 mg/kg/injection, schedule: Q01DX009 (ip), vehicle: Klucel (hydroxypropylcellulose) (HPC)) 92 % of control.

On to `CC(Br)(C(Br)c1ccccc1)[N+](=O)[O-]` (configuration not stated), for which, under setting [5], the T/C was 123 % of control.

As to `c1csc(-c2nc3ccccc3s2)c1`, the T/C is 109 % of control under setting [8], 100 % of control under setting [9] and 100 % of control under setting [10].

Regarding `CN(C)CNc1ncnc2onc(-c3ccccc3)c12`, the T/C under setting [3] is 100 % of control and the T/C under setting [4] was 102 % of control.

Regarding `O=S1(=O)CCN(C2CCCCCCC2)CC1`, the T/C was 115 % of control under setting [5], 116 % of control under setting [6] and 104 % of control under setting [7].

`CC(=O)NC(CO)(CO)CO`: the T/C (dose: 100.0 mg/kg/injection, schedule: Q01DX001 (ip), vehicle: saline) is 100 % of control and the T/C (dose: 200.0 mg/kg/injection, schedule: Q01DX001 (ip), vehicle: saline) is 95 % of control.

As for `O=C(O)C(CSC(c1ccccc1)c1ccccc1)N1C(=O)c2ccccc2C1=O` (configuration not stated), the T/C (dose: 50.0 mg/kg/injection, schedule: Q04DX003 (ip), vehicle: Klucel (hydroxypropylcellulose) (HPC)) was 100 % of control; the T/C under setting [1] is 104 % of control; the T/C under setting [2] is 95 % of control.

On to `C[C@]12C=CC(=O)C[C@@H]1CC[C@@H]1[C@@H]2C(=O)C[C@]2(C)C(=O)CC[C@@H]12`, for which the T/C was 100 % of control (dose: 100.0 mg/kg/injection, schedule: Q01DX009 (ip), vehicle: saline with Tween-80); 100 % of control (dose: 200.0 mg/kg/injection, schedule: Q01DX009 (ip), vehicle: saline with Tween-80); 109 % of control (dose: 400.0 mg/kg/injection, schedule: Q01DX009 (ip), vehicle: saline with Tween-80).

In the case of `C[N+](C)(CC(=O)Nc1ccc(Cl)c(Cl)c1)CC(=O)c1ccc(Cl)cc1`, the T/C is 110 % of control (dose: 6.25 mg/kg/injection, schedule: Q04DX003 (ip), vehicle: saline); 95 % of control (dose: 12.5 mg/kg/injection, schedule: Q04DX003 (ip), vehicle: saline); 100 % of control (dose: 25.0 mg/kg/injection, schedule: Q04DX003 (ip), vehicle: saline).

For the compound `CC(=O)Oc1ccc(C2C3=C(COC3=O)CC3=C2C(=O)OC3)cc1`, the T/C is, setting by setting: (dose: 100.0 mg/kg/injection, schedule: Q01DX007 (ip), vehicle: saline with Tween-80) 95 % of control; under setting [8], 100 % of control; (dose: 200.0 mg/kg/injection, schedule: Q01DX007 (ip), vehicle: saline with Tween-80) 90 % of control; under setting [9], 110 % of control; (dose: 400.0 mg/kg/injection, schedule: Q01DX007 (ip), vehicle: saline with Tween-80) 100 % of control; under setting [10], 100 % of control.

In the case of `COc1ccc(/C=C/C(=O)c2ccc(OC)c(OC)c2)cc1O`, the T/C is, setting by setting: (dose: 25.0 mg/kg/injection, schedule: Q01DX009 (ip), vehicle: saline) 108 % of control; (dose: 50.0 mg/kg/injection, schedule: Q01DX009 (ip), vehicle: saline) 101 % of control; (dose: 50.0 mg/kg/injection, schedule: Q04DX003 (ip), vehicle: saline) 107 % of control; under setting [11], 106 % of control; under setting [12], 110 % of control; under setting [13], 90 % of control. Also, the T/C is, setting by setting: under setting [14], 107 % of control; under setting [15], 99 % of control; under setting [16], 124 % of control.

For `O=C(Cn1ccc(O)cc1=O)N1CCC2(CC1)SSC1(CCN(C(=O)Cn3ccc(O)cc3=O)CC1)S2`, the T/C was 100 % of control under setting [11]; 105 % of control under setting [12]; 100 % of control under setting [13]; 116 % of control under setting [14]; 95 % of control under setting [15]; 122 % of control under setting [16].
